# Measured values: ChEMBL document CHEMBL1221236, “Discovery of a factor Xa inhibitor (3R,4R)-1-(2,2-difluoro-ethyl)-pyrrolidine-3,4-dicarboxylic acid 3-[(5-chloro-pyridin-2-yl)-amide] 4-[[2-fluoro-4-(2-oxo-2H-pyridin-1-yl)-phenyl]-amide] as a clinical candidate” (Bioorg Med Chem Lett, 2010)
# What was measured:
# [1] = Lipophilicity, log D of the compound at pH 7.4; format: physicochemical; conditions: buffer
# [2] = Permeability of the compound by PAMPA; format: ADME; conditions: read-out: permeability
# [3] = Oral bioavailability in rat; format: ADME, organism-based; conditions: in vivo
# [4] = Half life in po dosed rat; format: ADME, organism-based; conditions: in vivo
# [5] = Clearance in rat; format: ADME, organism-based; conditions: in vivo
# [6] = Volume of distribution at steady state in rat; format: ADME, organism-based; conditions: in vivo, read-out: Vdss
# Rattus norvegicus = assay: Dose normalized AUC in po dosed rat; format: ADME, organism-based; conditions: in vivo
# [7] = Oral bioavailability in cynomolgus monkey; format: ADME, organism-based, Macaca fascicularis; conditions: in vivo
# [8] = Half life in cynomolgus monkey; format: ADME, organism-based, Macaca fascicularis; conditions: in vivo
# [9] = Clearance in cynomolgus monkey; format: ADME, organism-based, Macaca fascicularis; conditions: in vivo
# [10] = Volume of distribution at steady state in cynomolgus monkey; format: ADME, organism-based, Macaca fascicularis; conditions: in vivo, read-out: Vdss
# Cynomolgus monkey = assay: Dose normalized AUC in po dosed cynomolgus monkey; format: ADME, organism-based, Macaca fascicularis; conditions: in vivo
# Phospholipidosis = assay: In vitro phospholipidosis; format: ADME, cell-based; conditions: human, hepg2
# [11] = Dissociation constant, pKa of the compound; format: physicochemical
smiles,measurement,setting,value
COc1ccc(NC(=O)[C@H]2CN(S(C)(=O)=O)C[C@@H]2C(=O)Nc2ccc(-n3ccccc3=O)cc2F)cc1,logD,[1],1.19
CS(=O)(=O)N1C[C@H](C(=O)Nc2ccc(Cl)cc2)[C@@H](C(=O)Nc2ccc(-n3ccccc3=O)cc2F)C1,logD,[1],2.17
CC(=O)N1C[C@H](C(=O)Nc2ccc(Cl)cc2)[C@@H](C(=O)Nc2ccc(-n3ccccc3=O)cc2F)C1,logD,[1],1.8
CS(=O)(=O)N1C[C@H](C(=O)Nc2ccc(Cl)cc2)[C@@H](C(=O)Nc2ccc(N3CCOCC3=O)cc2)C1,Papp,[2],0.46 ×10⁻⁶ cm/s
CCS(=O)(=O)N1C[C@H](C(=O)Nc2ccc(Cl)cc2)[C@@H](C(=O)Nc2ccc(-n3ccccc3=O)cc2F)C1,logD,[1],2.44
O=C(Nc1ccc(Cl)cc1)[C@H]1CN(CCO)C[C@@H]1C(=O)Nc1ccc(-n2ccccc2=O)cc1F,logD,[1],1.8
COC(=O)N1C[C@H](C(=O)Nc2ccc(Cl)cc2)[C@@H](C(=O)Nc2ccc(-n3ccccc3=O)cc2F)C1,logD,[1],2.43
O=C(Nc1ccc(Cl)cc1)[C@H]1CN(CC(F)F)C[C@@H]1C(=O)Nc1ccc(-n2ccccc2=O)cc1F,logD,[1],2.69
NS(=O)(=O)N1C[C@H](C(=O)Nc2ccc(Cl)cc2)[C@@H](C(=O)Nc2ccc(-n3ccccc3=O)cc2F)C1,logD,[1],1.83
O=C(Nc1ccc(Cl)cc1)[C@H]1CN(CC(F)(F)F)C[C@@H]1C(=O)Nc1ccc(-n2ccccc2=O)cc1F,logD,[1],3.2
O=C(Nc1ccc(Cl)cc1)[C@H]1CN(S(=O)(=O)CC(F)(F)F)C[C@@H]1C(=O)Nc1ccc(-n2ccccc2=O)cc1F,logD,[1],2.68
CN(C)S(=O)(=O)N1C[C@H](C(=O)Nc2ccc(Cl)cc2)[C@@H](C(=O)Nc2ccc(-n3ccccc3=O)cc2F)C1,logD,[1],2.62
CC(C)S(=O)(=O)N1C[C@H](C(=O)Nc2ccc(Cl)cc2)[C@@H](C(=O)Nc2ccc(-n3ccccc3=O)cc2F)C1,logD,[1],2.81
CCOC(=O)N1C[C@H](C(=O)Nc2ccc(Cl)cc2)[C@@H](C(=O)Nc2ccc(-n3ccccc3=O)cc2F)C1,logD,[1],2.57
O=C(Nc1ccc(Cl)cc1)[C@H]1CN(C(=O)N2CCCC2)C[C@@H]1C(=O)Nc1ccc(-n2ccccc2=O)cc1F,logD,[1],2.78
CCCOC(=O)N1C[C@H](C(=O)Nc2ccc(Cl)cc2)[C@@H](C(=O)Nc2ccc(-n3ccccc3=O)cc2F)C1,logD,[1],3.06
CCCS(=O)(=O)N1C[C@H](C(=O)Nc2ccc(Cl)cc2)[C@@H](C(=O)Nc2ccc(-n3ccccc3=O)cc2F)C1,logD,[1],2.94
CS(=O)(=O)N1C[C@H](C(=O)Nc2ccc(Cl)cn2)[C@@H](C(=O)Nc2ccc(-n3ccccc3=O)cc2F)C1,logD,[1],1.46
CCS(=O)(=O)N1C[C@H](C(=O)Nc2ccc(Cl)cn2)[C@@H](C(=O)Nc2ccc(-n3ccccc3=O)cc2F)C1,logD,[1],1.77
same,bioavailability,[3],24%
same,half-life,[4],1.1 h
same,clearance,[5],1.3 mL/min/kg
same,Vd,[6],0.04 L/kg
same,AUC,Rattus norvegicus,3300 ng·h/mL
same,bioavailability,[7],9%
same,half-life,[8],1.9 h
same,clearance,[9],5.5 mL/min/kg
same,Vd,[10],0.46 L/kg
same,AUC,Cynomolgus monkey,230 ng·h/mL
same,Phospholipidosis,Phospholipidosis,Not Active
same,pKa,[11],2.99
O=C(Nc1ccc(Cl)cn1)[C@H]1CN(CC(F)F)C[C@@H]1C(=O)Nc1ccc(-n2ccccc2=O)cc1F,logD,[1],2.2
same,bioavailability,[3],100%
same,half-life,[4],1.3 h
same,clearance,[5],2.1 mL/min/kg
same,Vd,[6],0.18 L/kg
same,AUC,Rattus norvegicus,10000 ng·h/mL
same,bioavailability,[7],65%
same,half-life,[8],6.3 h
same,clearance,[9],6.4 mL/min/kg
same,Vd,[10],0.54 L/kg
same,AUC,Cynomolgus monkey,1700 ng·h/mL
same,Phospholipidosis,Phospholipidosis,Not Active
same,pKa,[11],4.79
O=C(Nc1ccc(Cl)cn1)[C@H]1CNC[C@@H]1C(=O)Nc1ccc(-n2ccccc2=O)cc1F,logD,[1],0.63
CC(C)N1C[C@H](C(=O)Nc2ccc(Cl)cn2)[C@@H](C(=O)Nc2ccc(-n3ccccc3=O)cc2F)C1,logD,[1],1.86
same,bioavailability,[3],39%
same,half-life,[4],2.9 h
same,clearance,[5],4.2 mL/min/kg
same,Vd,[6],0.47 L/kg
same,AUC,Rattus norvegicus,900 ng·h/mL
same,bioavailability,[7],80%
same,half-life,[8],4.7 h
same,clearance,[9],17 mL/min/kg
same,Vd,[10],1.6 L/kg
same,AUC,Cynomolgus monkey,820 ng·h/mL
same,Phospholipidosis,Phospholipidosis,Active
same,pKa,[11],7.55
COC(=O)N1C[C@H](C(=O)Nc2ccc(Cl)cn2)[C@@H](C(=O)Nc2ccc(-n3ccccc3=O)cc2F)C1,logD,[1],2.02
same,bioavailability,[3],100%
same,half-life,[4],1.5 h
same,clearance,[5],7.3 mL/min/kg
same,Vd,[6],0.42 L/kg
same,AUC,Rattus norvegicus,2300 ng·h/mL
same,bioavailability,[7],64%
same,half-life,[8],5 h
same,clearance,[9],1.8 mL/min/kg
same,Vd,[10],0.44 L/kg
same,AUC,Cynomolgus monkey,6700 ng·h/mL
same,Phospholipidosis,Phospholipidosis,Not Active
same,pKa,[11],2.75
O=C(Nc1ccc(Cl)cn1)[C@H]1CN(CC(F)(F)F)C[C@@H]1C(=O)Nc1ccc(-n2ccccc2=O)cc1F,logD,[1],2.62
CS(=O)(=O)N1C[C@H](C(=O)Nc2ccc3[nH]ccc3c2)[C@@H](C(=O)Nc2ccc(-n3ccccc3=O)cc2F)C1,logD,[1],1.07
COc1ccc(NC(=O)[C@H]2CN(S(C)(=O)=O)C[C@@H]2C(=O)Nc2ccc(-n3ccccc3=O)cc2F)cc1Cl,logD,[1],1.9
COc1ccc(NC(=O)[C@H]2CN(S(C)(=O)=O)C[C@@H]2C(=O)Nc2ccc(-n3ccccc3=O)cc2F)cc1F,logD,[1],0.56
CS(=O)(=O)N1C[C@H](C(=O)Nc2ccc(OC(F)(F)F)cc2)[C@@H](C(=O)Nc2ccc(-n3ccccc3=O)cc2F)C1,logD,[1],2.36
CS(=O)(=O)N1C[C@H](C(=O)Nc2ccc(Cl)c(F)c2)[C@@H](C(=O)Nc2ccc(-n3ccccc3=O)cc2F)C1,logD,[1],2.37
CS(=O)(=O)N1C[C@H](C(=O)Nc2ccc3[nH]ncc3c2)[C@@H](C(=O)Nc2ccc(-n3ccccc3=O)cc2F)C1,logD,[1],0.5
